The text below walks through data of patent US10231958B2, “Methods and compositions for enhancing chemotherapy” (THE BOARD OF REGENTS OF THE UNIVERSITY OF TEXAS SYSTEM, priority 2015, dated 2019).

In data set [1] the test system is Kc167 cells, MEFs, and MDA-MB231 breast cancer cells. Put plainly: Cell viability (CellTiter-Glo). As to conditions: for effect on MMS toxicity / effect on toxicity of 4-HC, TMZ and CDDP: pre-incubation; for effect on MMS toxicity: then MMS, all cell types tested, 48 h; for effect on toxicity of 4-HC, TMZ and CDDP: then alkylator. It is filed as cell-based, D. melanogaster, mouse, human. How it is done: The D. melanogaster embryonic cell line Kc167 was grown in Schneider medium (Invitrogen, Carlsbad, Calif.) supplemented with 10% heat-inactivated (56° C./30 min) fetal bovine serum (FBS), penicillin and streptomycin at 22° C. in a humidified incubator. Primary MEFs were obtained by harvesting 14.5-day C57BL/6J embryos as previously described (Ravi et al., 2009, PLoS Genet 5, e1000527). Briefly, fetal liver and head were removed and the remainder of the embryo was mechanically disaggregated in plating medium. A suspension of single-cells was plated in DMEM (plus 10% FBS, 100 U/mL penicillin and 100 μg/mL streptomycin). MEFs were grown for two passages before freezing aliquots. Aliquots were taken and expanded as needed for each experiment. MDA-MB231, SkBr3 and MCF-7 breast cancer cells lines were obtained from ATCC and grown in DMEM supplemented with 10% inactivated FBS plus antibiotics in a 37° C. humidified incubator at […] atmosphere. Cells were kept and treated in the exponential phase of growing (60-70% confluence). […] DMSO concentrations were kept to a maximum of 0.1% for all experiments. Cell viability was assessed using CellTiter-Glo Luminescent Viability assay (Promega) in 384 or 96-well plates white-border clear-bottom plated cells. For caspase-3/7 activity, Caspase-Glo 3/7 Assay kits were used (Promega). For caspase assays, the cells were seeded in 96-well plates and assayed directly after treatments. Caspase-3/7 inhibitor (Z-DEVD-fmk) was used to ensure assay specificity. LDH release into culture medium was quantified by Cytotox-96 Non-Radioactive assay kit in agreement with instructions (Promega).

For data set [2], the system named is Intracellular ROS production. Put plainly: Real-time ROS production (DCF assay). The format is cell-based. As to conditions: for effect on ROS levels: Trolox 200 μM, NAC 7.5 mM, GSH-E 10 mM. The procedure:
Intracellular ROS production was detected using DCFH-DA probe (Sigma) (Zanotto-Filho et al., 2010, Cancer Lett 288, 192-203). This reagent enters the cells and reacts predominantly with highly oxidizing species of ROS, such as hydroxyl radicals, hydroperoxides, and peroxynitrite, thus producing the fluorophore DCF. Briefly, cells were seeded in black-edge clear bottom 96-well plates. After reaching 70% confluence, medium was changed and cells were incubated with 20 μM DCFH-DA dissolved in medium containing 0.5% FBS. After 1 h pre-incubation to allow DCFH-DA uptake, treatments were added to its respective final concentrations and DCF fluorescence was monitored at 0.5, 1, 3, 8, 12, 16 and 24 h in a fluorescence reader (Ex/Em=485/532 nm). Hydrogen peroxide was used as a positive control and N-acetylcysteine (NAC), GSH-ethyl-ester (GSH-E) and Trolox were used as antioxidant standards. As a control, at the end of 24 h, cell viability was assessed and compared to wells in the absence of DCFH-DA.

Data set [3] relates to protein sulfhydryl (protein-SH) groups. Put plainly: Protein sulfhydryl groups (dibromobimane assay). It is filed as cell-based. As to conditions: BSO treatment plus MMS. The procedure:
Protein reduced thiol groups (Protein-SH) were measured by dibromobimane assays with minor modifications (PMID:20463849). The 6-well plated cells (500,000 cells) were scraped in 0.6 mL PBS and 200 μL Perchloric acid (6 N) was added to precipitate proteins. The samples were incubated for 5 min in ice, centrifuged (14,000×g) Supernatants containing small peptides and glutathione were discarded and pellets were resuspended in 100 μL NaOH 0.1N, neutralized with 100 μL ice cold Perchloric acid (0.1 N), and 0.1 N PBS was added to keep pH constant. A stock solution of 4 mM dibromobimane in DMSO was added to a final concentration 40 μM, and incubated for 30 30 min at 37° C. Dibromobimane-protein fluorescence was measured at Ex=393 and, Em=477 nm.

The subject of data set [4] is NFκB-responsive firefly luciferase construct in MDA-MB231 cells. The data set can be described thus: NFκB gene reporter assay. It is filed as cell-based, human. As to conditions: MDA-MB231, pre-incubation with inhibitor. The procedure: (§1) Prior to transfection, cells were plated in 96-well plates to 80-90% confluence (100 μL antibiotic free-medium) after 24 h. When used, siRNA were incubated by reverse transfection during cells seeding. […] A mixture of non-inducible firefly luciferase construct and constitutively expressing Renilla luciferase construct (40:1) were used as negative controls. Approximately 24 h post-transfection, the medium was changed and the cells were treated for 12 h with alkylating agents (with/out 6 h pre-treatments). At the end of this period, medium was changed to drug-free fresh medium (to minimize the effect of alkylating toxicity on promoters activity) and cells were kept for an additional 12 h.

The test system of data set [5] is AP1-responsive firefly luciferase construct in MDA-MB231 cells. Put plainly: AP-1 gene reporter assay. It is filed as cell-based, human. As to conditions: MDA-MB231, pre-incubation with inhibitor. The procedure:
as §1
Background: In a reporter assay the amount or activity of a reporter protein is the signal.

Data set [6] has as its system NRF2, GCLC, ER stress markers. The data set can be described thus: Western blot of NRF2, GCLC and ER stress markers. As to conditions: CHX 1 μg/mL, Actinomycin D 5 μg/mL, NAC 7.5 mM. It is filed as cell-based. How it is done: (§2) Western blot. Protein lysates were prepared using RIPA buffer containing 5% sodium deoxycholate, 0.1% SDS, 0.1% Igepal in PBS with a cocktail of protease and phosphatase inhibitors (1 mM PMSF, 1 mM sodium orthovanadate, 1 mM NaF, and 30 μL/mL aprotinin (Sigma-Aldrich, USA)) and clarified by centrifugation. Protein concentration was determined using Bradford Protein Assay Reagent (Biorad, Hercules, Calif.). Equal amounts of protein were resolved using 8-12% SDS polyacrylamide gel, transferred onto nitrocellulose membranes (Hybond-ECL, GE Healthcare Lifesciences, Piscataway, N.J.) and detected using Lumiglo system (Cell Signaling Technology, Calif.) and x-ray films. Primary antibodies included COX-2 (#4842), NRF2 (D1C9), p-JNK1/2 (Thr183/Tyr185, #4671), p-p38 (Thr180/Tyr182, #9216), p-ERK1/2 (Thr202/Tyr204, #9101), BiP/GRP78 (C50B12), IRE1a (14C10), CHOP (L63F7) and PERK (D11A8) from Cell Signaling Technology; p-IRE1a (Ser724; NB100-2323) from Novus Biologicals; GCLC (Ab41463), beta-actin (ab8227) and ATF6 (Ab37149) from Abcam; p-PERK (Thr 981, sc-32577) and ATF3 (C19) were purchased from Santa Cruz. All primary antibodies were used at 1:1000 dilutions and secondary antibodies were 1:3000 in TBS-T with 5% BSA.

The subject of data set [7] is Intracellular glutathione levels. The data set can be described thus: Glutathione assay. The format is cell-based. As to conditions: glutathione precursors. The procedure: Intracellular glutathione levels were measured using the Glutathione (GSH/GSSG/Total) Fluorometric Assay Kit (BioVision Incorporated, Calif.), following manufacturer protocol. Briefly, 1×10^6 cells were scraped in PBS and centrifuged. Pellets were resuspended in 100 μL Glutathione assay buffer. 60 μL of this homogenate was mixed with PCA (perchloric acid) and centrifuged. Supernatant containing small molecules including GSH were neutralized with KOH and 3 fractions were collected and separated to analyze reduced (GSH), oxidized (GSSG) and total glutathione forms (GSH+GSSG) by reaction with OPA probe (o-phthalaldehyde) in the presence or absence of GSH quencher or reducing agents depending on the compound to be determined. Fluorescence was monitored at Ex/Em=340/420 nm for 40 min. Glutathione forms were calculated and normalized by protein (Bradford's assay).

In data set [8] the test system is MAPKs (ERK1/2, JNK1/2 and p38) and ATF2. Put plainly: Western blot of MAPK phosphorylation. As to conditions: MDA-MB231 cells, 8 h. The format is cell-based. How it is done:
as §2
In general terms: A western blot detects proteins with antibodies after separation by electrophoresis.

Another data set concerns MDA-MB231 cells. Put plainly: Extracellular matrix invasion assay (Boyden chamber). The format is cell-based, human. As to conditions: direct incubation. How it is done: (§3) Quantification of MMP1 and MMP3 content in culture medium was assessed using RayBio-MMP3 and RayBio-MMP1 Elisa Kit (RayBiotech, Inc); IL8 was analyzed by Human IL-8 Elisa kit (Pierce Biotechnology). The levels of prostaglandin E2 (PGE2) were determined using the Prostaglandin E2 EIA Kit Monoclonal (Cayman Chemical Company). Culture media were diluted to fit within the standard curves. For conditioned media (CM) preparation for invasion and in vitro angiogenesis experiments, 12-well plated cells were treated with MMS (or MMS plus inhibitors) for 8 h in the presence of 10% FBS, twice washed with HBSS, and incubated with 700 μL drug/serum-free fresh medium for additional 12 h. Thereafter, the conditioned fresh medium was collected and directly used for migration and invasion experiments in order to reduce freezing associated loss of activity.
The invasion potential of breast cancer cells was estimated using the QCM™ 24-Well Cell Invasion Assay Fluorimetric (Millipore). Serum starved cells were trypsinized, trypsin-inhibited, centrifuged, resuspended to 5000 cells/μL, and 50 μL of this suspension (250,000 cells) was seeded on 8 μm pore size inserts coated with extracellular matrix in serum-free conditions. Afterwards, 200 μL conditioned (CM) or fresh medium without serum was added to top chambers. The bottom chamber consisted of 500 μL of DMEM supplemented with 10% FBS as chemoattractant. Cells were allowed to migrate for 24 h at 37° C. under 5% CO2. Invaded cells were detached from the bottom side of the insert, lysed and incubated with CyQuant GR fluorescent Dye for 15 min. Fluorescence was read at Ex/Em=480/520 nm. Percentage of invading cells was compared to cell number standard curves.

The next data set concerns human endothelial cells. Put plainly: In vitro angiogenesis (Angiophase kit, CD31). The format is cell-based. As to conditions: direct incubation. The procedure: as §3
The Angiophase kit (MBL Inc.) was used to assess the angiogenic potential of conditioned media (CM) from breast cancer cells or the direct effect of pharmaceutical inhibitors (free-drug system) on vessel-like structures formation in vitro. With this kit, human endothelial cells are co-cultured in a specially designed medium to form threadlike tubule structures. These gradually join up to form a network of anastomosing tubules, which resemble the capillary bed found in the CAM assay. Kit-provided cryopreserved co-culture of human endothelial cells were plated and kept for 96 h (proliferative phase) without treatments. Afterwards, the cells were maintained in the presence of conditioned medium from alkylating agent treated cells or control medium for a total of 14 days (angiogenic/vasculogenic phase). Medium was changed each 2 days. At the end of treatments, the cells were fixed and immune-stained for CD31 (PECAM-1), following by incubation with secondary antibody conjugate. ELISA was developed using the soluble substrate p-nitrophenyl-phosphate (p-NPP) whose product was colorimetrically read at 405 nm. After ELISA assays, the wells were washed with dH2O and tubule staining was performed by incubating CD31-stained tubules with the substrate BCIP/NBT, which form insoluble precipitates. Tubules were counted and photographed for qualitative monitoring.

With `CCCCS(=N)(=O)CCC(N)C(=O)O` (centres unmarked) [BSO, buthionine sulfoximine], the “viability, agent alone” value in data set [1] (2.5 mM, up to 48 h) was “without effect on viability”. In [1], the “effect on MMS toxicity” value is recorded as “substantial necrotic cell death”; the “effect on toxicity of 4-HC, TMZ and CDDP” value is “potentiated”. Further, the “ROS production, agent alone” value in [2] (BSO 2.5 mM, CDDP 75 μM, TMZ 1.5 mM, 4HC 75 μM, 12 h) is “increased ROS to levels higher than the dose of MMS used”. Moreover, the “effect on MMS-induced ROS” value in [2] (BSO plus MMS) was determined as 2 fold. Moreover, the “effect on depletion of protein-SH residues by MMS” value in data set [3] is listed as “potentiated the depletion of protein-SH residues by MMS”.

As to `N#CC(=C(/N)Sc1ccccc1N)/C(C#N)=C(/N)Sc1ccccc1N` [UO126], in data set [4], the “effect on MMS-induced activation of NFκB reporter” value was “blocked”. Also, in data set [5], the “effect on MMS-induced activation of AP-1 reporter” value is recorded as “blocked”. For the same compound, the “decrease in cell numbers (anti-proliferative, not cytotoxic)” value in the data set with MDA-MB231 was 30%.

With `CC(=O)N[C@@H](CS)C(=O)O` [NAC, N-Acetyl-Cysteine], the “effect on BSO+MMS toxicity” value in [1] (NAC pretreatment) is “rescued the deleterious effects of BSO+MMS combination”. Besides, in data set [1], the “effect on MMS toxicity” value was “protective against MMS toxicity”; the “effect on toxicity of 4-HC, TMZ and CDDP” value is reported as “attenuated”. The “effect on MMS-induced NRF2 activation” value in data set [6] was “block both NRF2 activation and ER stress caused by MMS”. Also, the “effect on ROS levels” value in [2] is “reduced ROS below levels of the control”. The “effect on GSH levels” value in data set [7] is recorded as “effectively increased the GSH levels”. In addition, the “effect on MMS-induced MAPK phosphorylation” value in data set [8] is recorded as “inhibited”.

Turning to IL8: purified IL8, the “trans-well invasion, purified factor” value with MDA-MB231 cells is given as “stimulated trans-well invasion”. For the same compound, the “vessel-like structure formation, purified factor” value in the data set on human endothelial cells is “angiogenic”.

`CCOC(=O)CNC(=O)[C@H](CS)NC(=O)CC[C@H](N)C(=O)O` [GSH-E, glutathione ethyl-ester]: in data set [1], the “effect on MMS toxicity” value is reported as “protective against MMS toxicity”; the “effect on toxicity of 4-HC, TMZ and CDDP” value was “attenuated”. Besides, the “effect on ROS levels” value in data set [2] is listed as “reduced ROS below levels of the control”. The “effect on GSH levels” value in [7] was “effectively increased the GSH levels”.

Turning to MMP1: purified MMP1, the “trans-well invasion, purified factor” value in the data set on MDA-MB231 cells is on record as “stimulated trans-well invasion”.
